Legend:
Type in all cases: in vivo
rice (Oryza sativa) = assay: Test D flooded paddy test plant response; settings: Flood (flooded paddy test), visual rating on scale 0 to 100 (0 no effect, 100 complete control), 13 to 15 days
Description: (§1) Plant species in the flooded paddy test consisted of rice (Oryza sativa), small-flower umbrella sedge (Cyperus difformis), ducksalad (Heteranthera limosa), and bamyardgrass (Echinochloa crus-galli) grown to the 2-leaf stage for testing. At time of treatment, test pots were flooded to 3 cm above the soil surface, treated by application of test compounds directly to the paddy water, and then maintained at that water depth for the duration of the test. Treated plants and controls were maintained in a greenhouse for 13 to 15 days, after which time all species were compared to controls and visually evaluated. Plant response ratings, summarized in Table D, are based on a scale of 0 to 100 where 0 is no effect and 100 is complete control. A dash (-) response means no test result.

[1] = system: small-flower umbrella sedge (Cyperus difformis); assay: Test D flooded paddy test plant response; settings: Flood (flooded paddy test), visual rating on scale 0 to 100 (0 no effect, 100 complete control), 13 to 15 days
Description: as §1

[2] = system: barnyardgrass (Echinochloa crus-galli); assay: Test D flooded paddy test plant response; settings: Flood (flooded paddy test), visual rating on scale 0 to 100 (0 no effect, 100 complete control), 13 to 15 days
Description: as §1

[3] = system: ducksalad (Heteranthera limosa); assay: Test D flooded paddy test plant response; settings: Flood (flooded paddy test), visual rating on scale 0 to 100 (0 no effect, 100 complete control), 13 to 15 days
Description: as §1

Horseweed = assay: Test F postemergence plant response; settings: scale 0 to 100
[4] = system: Russian thistle (Salsola iberica); assay: Test E pre-/postemergence plant response; settings: scale 0 to 100
In short: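 Visual scores on a 0–100 scale (100 = complete control) were assigned against untreated controls 7–21 days after treatment in a controlled environment. Compounds, formulated with solvent plus surfactant, were applied to pre-emergence silt-loam sowings or to 1- to 4-leaf plants (2–18 cm) in potting medium.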

SMILES | Plant response rating, Rice (rice (Oryza sativa); 31 g ai/ha) | Plant response rating, Rice (rice (Oryza sativa); 62 g ai/ha) | Plant response rating, Rice (rice (Oryza sativa); 125 g ai/ha) | Plant response rating, Rice (rice (Oryza sativa); 250 g ai/ha) | Plant response rating, Sedge, Umbrella ([1]; 31 g ai/ha) | Plant response rating, Sedge, Umbrella ([1]; 62 g ai/ha) | Plant response rating, Sedge, Umbrella ([1]; 125 g ai/ha) | Plant response rating, Sedge, Umbrella ([1]; 250 g ai/ha) | Plant response rating, Barnyardgrass ([2]; 31 g ai/ha) | Plant response rating, Barnyardgrass ([2]; 62 g ai/ha) | Plant response rating, Barnyardgrass ([2]; 125 g ai/ha) | Plant response rating, Barnyardgrass ([2]; 250 g ai/ha) | Plant response rating, Ducksalad ([3]; 31 g ai/ha) | Plant response rating, Ducksalad ([3]; 62 g ai/ha) | Plant response rating, Ducksalad ([3]; 125 g ai/ha) | Plant response rating, Ducksalad ([3]; 250 g ai/ha) | Plant response rating, Horseweed (Horseweed; 16 g ai/ha Postemergence) | Plant response rating, Horseweed (Horseweed; 31 g ai/ha Postemergence) | Plant response rating, Horseweed (Horseweed; 62 g ai/ha Postemergence) | Plant response rating, Horseweed (Horseweed; 125 g ai/ha Postemergence) | further results
FCc1cc(-c2ccccc2Oc2ncc(Cl)cn2)no1 [Compound 32, 5-chloro-2-[2-[5-(fluoromethyl)-3-isoxazolyl]phenoxy]pyrimidine] | 0 | 0 | 0 | 15 | 0 | 40 | 65 | 90 | 0 | 0 | 10 | 20 | 0 | 60 | 65 | 95 |  |  |  |  | 
FC(F)c1cc(-c2ccccc2Oc2ncc(Cl)cn2)on1 [Compound 53, 5-chloro-2-[2-[3-(difluoromethyl)-5-isoxazolyl]phenoxy]pyrimidine] | 0 | 0 | 0 | 0 | 0 | 0 | 70 | 75 | 0 | 0 | 0 | 0 | 40 | 50 | 80 | 80 |  |  |  |  | 
Fc1ccc(Oc2ncc(Cl)cn2)c(-c2cc(C(F)F)on2)c1Cl [Compound 96] |  |  |  |  |  |  |  |  |  |  |  |  |  |  |  |  | 0 | 0 | 0 | 10 | 
Fc1cccc(Oc2ncc(Cl)cn2)c1-c1cc(C(F)F)no1 [Compound 144, 5-chloro-2-[2-[3-(difluoromethyl)-5-isoxazolyl]-3-fluorophenoxy]pyrimidine] | 0 | 15 | 25 | 40 | 65 | 80 | 95 | 95 | 0 | 0 | 15 | 35 | 75 | 85 | 90 | 100 | 0 | 0 | 10 | 25 | Plant response rating, Russian Thistle ([4]; 16 g ai/ha Postemergence): 85; Plant response rating, Russian Thistle ([4]; 16 g ai/ha Preemergence): 15; Plant response rating, Russian Thistle ([4]; 31 g ai/ha Postemergence): 90; Plant response rating, Russian Thistle ([4]; 31 g ai/ha Preemergence): 65; Plant response rating, Russian Thistle ([4]; 62 g ai/ha Postemergence): 95; Plant response rating, Russian Thistle ([4]; 62 g ai/ha Preemergence): 100; Plant response rating, Russian Thistle ([4]; 125 g ai/ha Postemergence): 98; Plant response rating, Russian Thistle ([4]; 125 g ai/ha Preemergence): 100
Fc1cccc(Oc2ncc(Br)cn2)c1-c1cc(C(F)F)no1 [Compound 145, 5-bromo-2-[2-[3-(difluoromethyl)-5-isoxazolyl]-3-fluorophenoxy]pyrimidine] | 0 | 15 | 15 | 35 | 60 | 75 | 90 | 90 | 0 | 0 | 0 | 35 | 80 | 85 | 95 | 95 | 0 | 20 | 20 | 40 | Plant response rating, Russian Thistle ([4]; 16 g ai/ha Postemergence): 80; Plant response rating, Russian Thistle ([4]; 16 g ai/ha Preemergence): 0; Plant response rating, Russian Thistle ([4]; 31 g ai/ha Postemergence): 85; Plant response rating, Russian Thistle ([4]; 31 g ai/ha Preemergence): 10; Plant response rating, Russian Thistle ([4]; 62 g ai/ha Postemergence): 90; Plant response rating, Russian Thistle ([4]; 62 g ai/ha Preemergence): 60; Plant response rating, Russian Thistle ([4]; 125 g ai/ha Postemergence): 100; Plant response rating, Russian Thistle ([4]; 125 g ai/ha Preemergence): 100
CC(F)(F)c1cc(-c2ccccc2Oc2ncc(Br)cn2)no1 [Compound 149] |  |  |  |  |  |  |  |  |  |  |  |  |  |  |  |  | 0 | 20 | 10 | 20 | 
CC(F)(F)c1cc(-c2ccccc2Oc2ncc(Cl)cn2)on1 [Compound 178] | 0 | 0 | 0 | 0 | 30 | 60 | 60 | 75 | 0 | 0 | 0 | 0 | 40 | 65 | 70 | 70 |  |  |  |  | 
FC(F)c1cc(-c2c(Cl)cccc2Oc2ncc(Cl)cn2)no1 [Compound 179] |  |  |  |  |  |  |  |  |  |  |  |  |  |  |  |  | 0 | 0 | 10 | 10 | 
N#Cc1cccc(Oc2ncc(Cl)cn2)c1-c1cc(C(F)F)on1 [Compound 180] | 0 | 0 | 0 | 0 | 0 | 50 | 75 | 80 | 0 | 0 | 10 | 10 | 0 | 0 | 75 | 75 |  |  |  |  | 
FC(F)c1cc(-c2ccccc2Oc2ncc(Br)cn2)on1 [Compound 212] |  |  |  |  |  |  |  |  |  |  |  |  |  |  |  |  | 0 | 0 | 15 | 10 | 
Fc1ccc(Oc2ncc(Cl)cn2)c(-c2cc(C(F)(Cl)Cl)on2)c1 [Compound 221] |  | 15 |  | 40 |  | 80 |  | 95 |  | 40 |  | 60 |  | 80 |  | 90 | 0 | 5 | 10 | 30 | 
